Counter-ions that a name gives are not always drawn. Like-named read-outs stand apart in the source and are kept apart here.
What was measured:
[1] = molecular target: T1, KIT (Homo sapiens, UniProt P10721); assay: Binding constant (Kd) measurement, phage-displayed kinase competition binding assay, KIT
T1 construct: made in house
Description: (§1) Binding Constant (Kd) Measurements for Small-Molecule-Kinase Interactions
(§2) By testing across a large class of protein kinases, specificity of the kinase inhibitors provided herein is also determined. The components of the assays include various human kinases expressed as fusions to T7 bacteriophage particles and immobilized ligands that bind to the ATP site of the kinases. […] If the test compound binds the kinase, it competes with the immobilized ligand and prevents binding to the solid support. […] The results are read out by quantitating the amount of fusion protein bound to the solid support, which is accomplished by either traditional phage plaque assays or by quantitative PCR (qPCR) using the phage genome as a template.

[2] = molecular target: T2, CSF1R (Homo sapiens, UniProt P07333); assay: Binding constant (Kd) measurement, phage-displayed kinase competition binding assay, CSF1R
T2 construct: made in house
T2 sequence (P07333 20-972): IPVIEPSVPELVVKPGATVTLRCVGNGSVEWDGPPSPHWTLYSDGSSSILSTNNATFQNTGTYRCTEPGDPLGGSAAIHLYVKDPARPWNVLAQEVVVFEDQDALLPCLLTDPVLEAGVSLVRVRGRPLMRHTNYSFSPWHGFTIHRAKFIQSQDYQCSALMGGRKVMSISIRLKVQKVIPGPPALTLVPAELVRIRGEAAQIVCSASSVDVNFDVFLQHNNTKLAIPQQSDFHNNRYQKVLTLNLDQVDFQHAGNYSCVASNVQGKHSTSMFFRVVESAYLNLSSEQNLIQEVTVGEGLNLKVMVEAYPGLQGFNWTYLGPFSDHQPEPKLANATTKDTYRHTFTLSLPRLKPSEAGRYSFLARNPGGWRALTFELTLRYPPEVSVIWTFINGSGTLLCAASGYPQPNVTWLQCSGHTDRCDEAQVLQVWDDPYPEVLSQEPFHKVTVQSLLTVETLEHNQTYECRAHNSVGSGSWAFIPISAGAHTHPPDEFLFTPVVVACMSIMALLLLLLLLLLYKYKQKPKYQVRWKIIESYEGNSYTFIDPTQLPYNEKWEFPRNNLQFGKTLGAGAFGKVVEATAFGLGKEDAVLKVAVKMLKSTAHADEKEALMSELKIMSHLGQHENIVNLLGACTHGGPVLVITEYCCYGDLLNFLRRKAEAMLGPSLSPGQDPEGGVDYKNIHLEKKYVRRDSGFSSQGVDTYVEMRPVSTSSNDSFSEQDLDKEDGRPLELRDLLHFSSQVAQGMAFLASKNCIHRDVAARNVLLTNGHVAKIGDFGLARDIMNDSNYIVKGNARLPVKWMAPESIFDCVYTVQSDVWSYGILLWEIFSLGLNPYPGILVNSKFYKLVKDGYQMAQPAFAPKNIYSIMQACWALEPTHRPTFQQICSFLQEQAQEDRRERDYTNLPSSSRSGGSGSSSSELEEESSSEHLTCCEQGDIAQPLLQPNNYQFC
Description: as §1, §2

[3] = molecular target: T3, FLT3 (Homo sapiens, UniProt P36888); assay: Binding constant (Kd) measurement, phage-displayed kinase competition binding assay, FLT3
T3 construct: made in house
T3 sequence (P36888 27-993): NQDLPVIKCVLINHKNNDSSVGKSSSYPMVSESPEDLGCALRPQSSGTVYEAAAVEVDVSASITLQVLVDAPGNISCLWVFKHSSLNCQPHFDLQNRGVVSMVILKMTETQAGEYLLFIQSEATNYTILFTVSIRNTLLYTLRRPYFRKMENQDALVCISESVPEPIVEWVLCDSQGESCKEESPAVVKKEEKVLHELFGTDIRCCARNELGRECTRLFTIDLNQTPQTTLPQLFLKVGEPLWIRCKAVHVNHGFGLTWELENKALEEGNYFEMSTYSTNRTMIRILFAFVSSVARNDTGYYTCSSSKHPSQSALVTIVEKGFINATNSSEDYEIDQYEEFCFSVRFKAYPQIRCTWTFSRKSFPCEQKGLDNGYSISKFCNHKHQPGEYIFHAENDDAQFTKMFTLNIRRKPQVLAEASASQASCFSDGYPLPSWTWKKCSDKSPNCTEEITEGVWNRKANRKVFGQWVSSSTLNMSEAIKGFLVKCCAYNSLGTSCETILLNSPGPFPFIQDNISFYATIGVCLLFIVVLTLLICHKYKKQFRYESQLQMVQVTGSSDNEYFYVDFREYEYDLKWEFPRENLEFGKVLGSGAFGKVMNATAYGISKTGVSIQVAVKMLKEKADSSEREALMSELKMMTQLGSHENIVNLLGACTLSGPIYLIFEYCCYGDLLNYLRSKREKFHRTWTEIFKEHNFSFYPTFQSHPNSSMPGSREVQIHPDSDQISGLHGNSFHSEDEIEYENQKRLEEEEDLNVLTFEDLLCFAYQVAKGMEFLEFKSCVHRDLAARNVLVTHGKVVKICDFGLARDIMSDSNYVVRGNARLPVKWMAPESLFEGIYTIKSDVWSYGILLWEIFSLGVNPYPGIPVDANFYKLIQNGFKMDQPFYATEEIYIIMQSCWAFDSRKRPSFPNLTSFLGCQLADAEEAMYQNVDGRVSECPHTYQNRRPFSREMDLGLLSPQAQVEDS
Description: as §1, §2

[4] = test system: MV4-11 cells; assay: Cellular proliferation assay (MTS), MV4-11; format: cell-based; settings: Homo sapiens
From the text: Cellular Proliferation Assay
Cancer cell viability and proliferation can be evaluated using a tetrazolium salt reduction cell-based assay. In viable cells, this colorimetric assay can measure mitochondrial reduction of a tetrazolium component (MTS) into an […] formazan product.
This cell line was used to determine the ability of the compounds provided herein to inhibit Flt3 in intact cells. The RS4-11 cell line, which expresses the wild-type (WT) receptor, is also used as a control to verify the test compound's ability to inhibit the FLT3 receptor containing the ITD mutation.
MV4-11 cells were plated at 10,000 cells per well in DMEM medium with 0.5% serum. RS4-11 cells were plated at 20,000 cells per well in RPMI with 0.5% serum. […] An aliquot from each well of the compound plate was transferred to the plated cells and then incubated @ 37° C. in 5% CO2 (for 3 days for the MV4-11 cells, 2 days for the RS4-11 cells).
MTS tetrazolium compound (Owen's reagent) was thawed in a H2O bath. 20 μl of MTS tetrazolium was added to each well of optical plate and the cells were incubated @ 37° C. in 5% CO2 for 2 hours.

[5] = MV4-11 cells, 72 hour incubation, MTS, read-out: Cellular Assay MV-proliferation IC50
[6] = read-out: Binding Assay FLT3 Kd

T1 sequence (P10721 26-976): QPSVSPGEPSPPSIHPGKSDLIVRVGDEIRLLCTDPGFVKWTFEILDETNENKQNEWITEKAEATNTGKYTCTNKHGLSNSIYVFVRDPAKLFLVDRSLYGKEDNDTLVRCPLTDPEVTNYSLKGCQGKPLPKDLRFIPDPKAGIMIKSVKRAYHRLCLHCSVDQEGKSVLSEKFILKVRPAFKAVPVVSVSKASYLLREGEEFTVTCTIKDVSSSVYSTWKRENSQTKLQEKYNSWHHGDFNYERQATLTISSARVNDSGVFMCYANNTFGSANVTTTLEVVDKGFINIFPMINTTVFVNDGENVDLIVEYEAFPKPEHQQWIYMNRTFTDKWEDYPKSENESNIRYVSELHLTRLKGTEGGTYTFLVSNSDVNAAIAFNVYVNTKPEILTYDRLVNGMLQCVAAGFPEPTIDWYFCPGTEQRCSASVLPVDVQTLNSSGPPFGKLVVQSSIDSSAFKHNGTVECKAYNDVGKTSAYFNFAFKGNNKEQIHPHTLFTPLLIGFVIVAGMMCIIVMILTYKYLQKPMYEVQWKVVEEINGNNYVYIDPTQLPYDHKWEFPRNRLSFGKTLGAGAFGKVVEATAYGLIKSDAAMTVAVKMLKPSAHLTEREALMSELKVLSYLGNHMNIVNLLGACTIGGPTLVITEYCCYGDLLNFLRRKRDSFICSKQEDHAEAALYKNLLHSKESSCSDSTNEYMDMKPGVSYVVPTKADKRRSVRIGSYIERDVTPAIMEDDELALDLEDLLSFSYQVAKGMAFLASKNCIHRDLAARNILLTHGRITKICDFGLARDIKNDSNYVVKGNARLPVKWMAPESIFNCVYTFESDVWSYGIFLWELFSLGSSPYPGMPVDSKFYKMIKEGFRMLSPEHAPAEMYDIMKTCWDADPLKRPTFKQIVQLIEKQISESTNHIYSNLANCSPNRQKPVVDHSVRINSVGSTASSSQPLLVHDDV

Kd [1]	Kd [2]	IC50 [4, 5]	Kd [3, 6]	Structure (SMILES)	Kd [3]	IC50 ([4]; MV4-11, 72 h, read-out: Cellular Assay MV-proliferation IC50 (nM))
< 0.01 µM	0.01 to 0.1 µM	< 10 nM	< 0.01 µM	CC(C)(C)c1cc(NC(=O)Nc2ccc(-c3cn4c(n3)sc3cc(CCC(=O)N5CCOCC5)ccc34)cc2)no1 [Compound C7, N-(5-tert-butyl-isoxazol-3-yl)-N′-{4-[7-(3-morpholino-4-yl-3-oxo-propyl)imidazo[2,1-b][1,3]benzothiazol-2-yl]phenyl}urea]		
< 0.01 µM	0.01 to 0.1 µM	< 10 nM	< 0.01 µM	CCN1CCN(C(=O)CCc2ccc3c(c2)sc2nc(-c4ccc(NC(=O)Nc5cc(C(C)(C)C)on5)cc4)cn23)CC1 [Compound C5, N-(5-tert-Butyl-isoxazol-3-yl)-N′-(4-{7-[3-(4-ethyl-piperazin-1-yl)-3-oxo-propyl]imidazo[2,1-b][1,3]benzothiazol-2-yl}phenyl)urea]		
0.01 to 0.1 µM	> 1 µM	< 10 nM	< 0.01 µM	O=C(Cc1noc2ccccc12)Nc1ccc(-c2cn3c(n2)sc2cc(OCCN4CCOCC4)ccc23)cc1 [Compound E2, 2-benzo[d]isoxazol-3-yl-N-{4-[7-(2-morpholin-4-yl-ethoxy)-benzo[d]imidazo[2,1-b]thiazol-2-yl]-phenyl}-acetamide]		
< 0.01 µM	0.01 to 0.1 µM	< 10 nM	< 0.01 µM	CC(C)(C)c1cc(NC(=O)Nc2ccc(-c3cn4c(n3)sc3cc(CCC(=O)NCCN5CCCCC5)ccc34)cc2)no1 [Compound C10, 3-(2-{4-[3-(5-tert-butyl-isoxazol-3-yl)-ureido]-phenyl}-benzo[d]imidazo[2,1-b]thiazol-7-yl)-N-(2-piperidin-1-yl-ethyl)-propionamide hydrochloride]		
> 1 µM	> 1 µM	> 100 nM	> 1 µM	CCOC(=O)c1ccc2c(c1)sc1nc(-c3cccc(NC(=O)Nc4cc(C(C)(C)C)on4)c3)cn12 [Compound B14, 2-{3-[3-(5-tert-Butyl-isoxazol-3-yl)-ureido]-phenyl}-imidazo[2,1-b][1,3]benzothiazole-7-carboxylic acid ethyl ester]		
< 0.01 µM	< 0.01 µM	< 10 nM	< 0.01 µM	CC(C)(C)c1cc(NC(=O)Nc2ccc(-c3cn4c(n3)sc3cc(CCC(=O)NCCN5CCOCC5)ccc34)cc2)no1 [Compound C9, 3-(2-{4-[3-(5-tert-butyl-isoxazol-3-yl)-ureido]-phenyl}-benzo[d]imidazo[2,1-b]thiazol-7-yl)-N-(2-morpholin-4-yl-ethyl)-propionamide hydrochloride]		
0.01 to 0.1 µM	0.01 to 0.1 µM	< 10 nM	< 0.01 µM	CC(C)(C)c1cc(NC(=O)Nc2ccc(-c3cn4c(n3)sc3cc(OCCCN5CCOCC5)ccc34)cc2)no1 [Compound B7, 1-(5-tert-butyl-isoxazol-3-yl)-3-{4-[7-(3-morpholin-4-yl-propoxy)-benzo[d]imidazo[2,1-b]thiazol-2-yl]-phenyl}-urea hydrochloride]		
< 0.01 µM	> 1 µM		< 0.01 µM	O=C(Nc1ccc(-c2cn3c(n2)sc2cc(OCCN4CCOCC4)ccc23)cc1)Nc1ccc2c(c1)OCO2 [Compound F3]		
< 0.01 µM	0.01 to 0.1 µM	< 10 nM		CC(C)(C)c1cc(NC(=O)Nc2ccc(-c3cn4c(n3)sc3cc(C(=O)NCCN5CCOCC5)ccc34)cc2)no1 [Compound C19, 2-{4-[3-(5-tert-butyl-isoxazol-3-yl)-ureido]-phenyl}imidazo[2,1-b][1,3]benzothiazole-7-carboxylic acid (2-morpholin-4-yl-ethyl)-amide hydrochloride]		

Structure (SMILES)	Kd [1]	Kd [2]	IC50 [4, 5]	Kd [3, 6]	Kd [3]	IC50 ([4]; MV4-11, 72 h, read-out: Cellular Assay MV-proliferation IC50 (nM))
CC(C)(C)c1cc(NC(=O)Nc2ccc(-c3cn4c(n3)sc3cc(CN5CCCCC5)ccc34)cc2)no1 [Compound D10, 1-(5-tert-Butyl-isoxazol-3-yl)-3-[4-(7-piperidin-1-ylmethyl-imidazo[2,1-b][1,3]benzothiazol-2-yl)-phenyl]urea hydrochloride]	< 0.01 µM	0.01 to 0.1 µM	< 10 nM		< 0.01 µM	
CC(C)[C@@H](N)C(=O)Oc1ccc2c(c1)sc1nc(-c3ccc(NC(=O)Nc4cc(C(C)(C)C)on4)cc3)cn12 [Compound B5, (2R)-2-amino-3-methyl-butyric acid 2-{4-[3-(5-tert-butyl-isoxazol-3-yl)-ureido]-phenyl}-benzo[d]imidazo[2,1-b]thiazol-7-yl ester]	0.01 to 0.1 µM	0.01 to 0.1 µM	< 10 nM		< 0.01 µM	
CC(C)(C)c1cc(NC(=O)Nc2ccc(-c3cn4c(n3)sc3cc(C(=O)N5CCNCC5)ccc34)cc2)no1 [Compound C24, 1-(5-tert-butyl-isoxazol-3-yl)-3-{4-[7-(piperazine-1-carbonyl)-imidazo[2,1-b][1,3]benzothiazol-2-yl]-phenyl}-urea hydrochloride]	< 0.01 µM	0.01 to 0.1 µM	< 10 nM		< 0.01 µM	
CCN1CCN(C(=O)c2ccc3c(c2)sc2nc(-c4ccc(NC(=O)Nc5cc(C(C)(C)C)on5)cc4)cn23)CC1 [Compound C23, 1-(5-tert-butyl-isoxazol-3-yl)-3-{4-[7-(4-ethyl-piperazine-1-carbonyl)-imidazo[2,1-b][1,3]benzothiazol-2-yl]-phenyl}-urea hydrochloride]	< 0.01 µM	0.01 to 0.1 µM		< 0.01 µM		< 10 nM
CCN(CC)CCNC(=O)c1ccc2c(c1)sc1nc(-c3ccc(NC(=O)Nc4cc(C(C)(C)C)on4)cc3)cn12 [Compound C22, 2-{4-[3-(5-tert-butyl-isoxazol-3-yl)-ureido]-phenyl}-imidazo[2,1-b][1,3]benzothiazole-7-carboxylic acid (2-diethylamino-ethyl)-amide hydrochloride]	< 0.01 µM	0.01 to 0.1 µM	< 10 nM		< 0.01 µM	
CC(C)(C)c1cc(NC(=O)Nc2ccc(-c3cn4c(n3)sc3cc(CC(=O)NCCN5CCOCC5)ccc34)cc2)no1 [Compound C13, 2-(2-{4-[3-(5-tert-butyl-isoxazol-3-yl)-ureido]-phenyl}-benzo[d]imidazo[2,1-b]thiazol-7-yl)-N-(2-morpholin-4-yl-ethyl)-acetamide hydrochloride]	< 0.01 µM	0.01 to 0.1 µM	< 10 nM		< 0.01 µM	
CC(C)(C)c1cc(NC(=O)Nc2ccc(-c3cn4c(n3)sc3cc(CC(=O)N5CCOCC5)ccc34)cc2)no1 [Compound C18, 1-(5-tert-butyl-isoxazol-3-yl)-3-{4-[7-(2-morpholin-4-yl-2-oxo-ethyl)-imidazo[2,1-b][1,3]benzothiazol-2yl]-phenyl}-urea]	< 0.01 µM	0.01 to 0.1 µM	< 10 nM		< 0.01 µM	
CCN(CC)CCNC(=O)CCc1ccc2c(c1)sc1nc(-c3ccc(NC(=O)Nc4cc(C(C)(C)C)on4)cc3)cn12 [Compound C12, 3-(2-{4-[3-(5-tert-butyl-isoxazol-3-yl)-ureido]-phenyl}-benzo[d]imidazo[2,1-b]thiazol-7-yl)-N-(2-diethylamino-ethyl)-propionamide hydrochloride]	< 0.01 µM	0.01 to 0.1 µM	< 10 nM		< 0.01 µM	

Source: patent publication US8921546B2, “Imidazolothiazole compounds for the treatment of disease” (Ambit Biosciences Corporation, priority 2006, dated 2014)
